In patent publication US8623898B2, “Glycine transporter inhibiting substances” (Taisho Pharmaceutical Co., Ltd., priority 2009, dated 2014):
Like-named read-outs stand apart in the source and are kept apart here.

Biological target: T1, human type 1 glycine transporter (GlyT1) (Homo sapiens, UniProt P48067)
T1 construct: Used in the experiment were T98G cells (glioma cells) developing a human type 1 glycine transporter (GlyT1); endogenous in cells; host or cells: T98G human glioma cells
T1 sequence (P48067 1-706): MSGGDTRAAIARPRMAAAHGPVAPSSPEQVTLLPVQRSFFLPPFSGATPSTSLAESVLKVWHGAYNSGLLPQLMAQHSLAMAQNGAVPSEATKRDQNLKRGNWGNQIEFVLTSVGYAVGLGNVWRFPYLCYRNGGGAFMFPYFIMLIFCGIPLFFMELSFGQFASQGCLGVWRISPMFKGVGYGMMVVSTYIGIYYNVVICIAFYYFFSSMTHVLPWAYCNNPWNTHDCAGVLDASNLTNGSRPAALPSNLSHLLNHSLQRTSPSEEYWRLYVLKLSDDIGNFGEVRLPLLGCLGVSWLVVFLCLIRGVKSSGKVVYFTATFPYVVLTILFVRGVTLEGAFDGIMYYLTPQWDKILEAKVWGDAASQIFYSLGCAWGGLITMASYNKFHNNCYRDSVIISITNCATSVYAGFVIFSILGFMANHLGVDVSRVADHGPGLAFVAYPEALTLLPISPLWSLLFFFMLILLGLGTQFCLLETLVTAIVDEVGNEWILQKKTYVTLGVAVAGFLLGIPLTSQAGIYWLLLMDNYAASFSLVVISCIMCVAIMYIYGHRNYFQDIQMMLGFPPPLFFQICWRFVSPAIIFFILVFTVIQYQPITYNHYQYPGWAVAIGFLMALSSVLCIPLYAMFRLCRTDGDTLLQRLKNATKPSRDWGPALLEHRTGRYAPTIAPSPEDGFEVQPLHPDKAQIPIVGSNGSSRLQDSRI
Experiment: Glycine uptake inhibition experiment ([3H] glycine uptake in T98G cells)
Type: cell-based
Conditions: [3H] glycine 250 nM, read-out: IC50 (glycine uptake inhibiting activity)
Method: A glycine uptake inhibition experiment was conducted in accordance with the method described in Neuron, 8, 927-935, 1992. Used in the experiment were T98G cells (glioma cells) developing a human type 1 glycine transporter (GlyT1). The T98G cells were seeded in a 96-well plate at a density of 2.0×10^4 cells per well and cultured overnight in a CO2 incubator. The test substance was first dissolved in a 100% DMSO solution and then dissolved in a 10 mM HEPES buffer solution (pH 7.4) supplemented with 150 mM sodium chloride, 1 mM calcium chloride, 5 mM potassium chloride, 1 mM magnesium chloride, 10 mM glucose, and 0.2% bovine serum albumin. After removing the cell culture medium, the test substance was subjected to a 10-min pretreatment. Thereafter, the test substance and [^3H] glycine (final concentration: 250 nM) were added to the cells and reaction was performed at room temperature for 15 minutes. After the end of the reaction, the extracellular fluid was aspirated with a manifold to remove the excess marker glycine present outside of the cells; thereafter, the cells were lysed with an aqueous solution of 0.5 M sodium hydroxide. The glycine content in the cells was determined by measuring the radioactivity in the cell lysate with a liquid scintillation counter. With the amount of glycine uptake in the presence of 10 μM ALX5407 being referred to as the nonspecific uptake, the amount of specific uptake was calculated by subtracting the amount of nonspecific uptake from the total amount of uptake in the absence of 10 μM ALX5407. In addition, glycine uptake inhibiting activity (IC50) was calculated from an inhibition curve for the concentration of the test substance ranging from 10^−9 to 10^−5 M.

Compound | IC50 (15 min, room temperature) [nM] | IC50 [nM]
Cn1cnc(C(=O)N(Cc2cc(Cl)cc(OC(F)(F)F)c2)C2CCOCC2)n1 [Compound 73] | 18.9 | < 100
Cn1cc(C(=O)N(Cc2cccc(OC(F)(F)F)c2)C2CCOCC2)nc1Br [Compound 6] |  | ≥ 1000
COc1cccc(CN(C(=O)c2cn(C)cn2)C2CCOCC2)c1 [Compound 23] |  | < 100
Cn1cnc(C(=O)N(C2CCOCC2)C(c2ccccc2)c2ccccc2)c1 [Compound 108] |  | ≥ 1000
COCCn1cnc(C(=O)N(Cc2cccc(OC(F)(F)F)c2)C2CCOCC2)c1 [Compound 20] |  | ≥ 1000
Cn1cnc(C(=O)N(Cc2cc(F)cc(C(F)(F)F)c2)C2CCOCC2)c1 [Compound 42] | 26.9 | < 100
Cc1nc(C(=O)N(Cc2cccc(OC(F)(F)F)c2)C2CCOCC2)cn1C [Compound 9] |  | ≥ 1000
Cn1cnc(C(=O)N(Cc2cccc(C(F)(F)F)c2)C2CCSCC2)c1 [Compound 113] | 7.1 | < 100
Cn1cnc(C(=O)N(Cc2ccc(F)c(Br)c2)C2CCOCC2)c1 [Compound 102] | 3.8 | < 100
O=C(c1nc[nH]n1)N(Cc1ccc(F)c(Cl)c1)C1CCOCC1 [Compound 29] |  | ≥ 1000
Cn1cnc(C(=O)N(Cc2ccc(F)c(-c3ccc(OC(F)(F)F)cc3)c2)C2CCSCC2)c1 [Compound 112] | 20.3 | < 100
Cn1cnc(C(=O)N(Cc2cccc(C(F)(F)F)c2)C2CCS(=O)(=O)CC2)c1 [Compound 117] |  | ≥ 1000
Cn1cnc(C(=O)N(Cc2ccc(-c3ccccc3)cc2)C2CCOCC2)c1 [Compound 44] |  | ≥ 1000
Cn1cnc(C(=O)N(Cc2ccc(F)c(-c3ccc(F)cc3)c2)C2CCSCC2)c1 [Compound 114] | 16.4 | < 100
CCn1cnc(C(=O)N(Cc2cccc(OC(F)(F)F)c2)C2CCOCC2)c1 [Compound 13] | 3.1 | < 100
Cn1cnc(C(=O)N(CCOc2ccc(Cl)c(Cl)c2)C2CCOCC2)c1 [Compound 39] |  | < 100
CC1CC(N(Cc2ccc(F)c(Br)c2)C(=O)c2cn(C)cn2)CC(C)O1 (stereo not shown) [Compound 111] |  | ≥ 1000
Cc1cc(CN(C(=O)c2cn(C)cn2)C2CCSCC2)cc(OC(F)(F)F)c1 [Compound 118] | 11.3 | < 100
Cn1cnc(C(=O)N(Cc2ccc(F)c(C(F)(F)F)c2)C2CCOCC2)c1 [Compound 25] | 4.1 | < 100
Cn1cnc(C(=O)N(Cc2ccc(OC(F)F)c(OC(F)F)c2)C2CCOCC2)n1 [Compound 68] |  | ≥ 1000

Further lines, results first:

IC50 (15 min, room temperature) [nM] | IC50 [nM] | Compound
42.2 | < 100 | Cn1cnc(C(=O)N(Cc2cccc(OC(F)F)c2)C2CCOCC2)n1 [Compound 67]
45.9 | < 100 | Cn1cnc(C(=O)N(Cc2ccc(F)c(Br)c2)C2CCOCC2)n1 [Compound 57]
32.6 | < 100 | CCn1cnc(C(=O)N(Cc2ccc(F)c(C(F)(F)F)c2)C2CCOCC2)n1 [Compound 45]
16.2 | < 100 | Cc1ccc(-c2cc(CN(C(=O)c3cn(C)cn3)C3CCOCC3)ccc2F)cc1 [Compound 105]
27.2 | < 100 | Cn1cnc(C(=O)N(Cc2ccc(F)c(-c3ccc(C(F)(F)F)cc3)c2)C2CCOCC2)c1 [Compound 104]
41.8 | < 100 | CCCOc1cccc(-c2cc(CN(C(=O)c3ncn(C)n3)C3CCOCC3)ccc2F)c1 [Compound 93]
 | ≥ 1000 | Cn1cnc(C(=O)N(CCc2ccccc2Cl)C2CCOCC2)n1 [Compound 47]
41.1 | < 100 | Cn1cnc(C(=O)N(Cc2ccc(F)c(-c3cccc(CCC#N)c3)c2)C2CCOCC2)c1 [Compound 101]
45.1 | < 100 | Cn1cnc(C(=O)N(Cc2ccc(F)c(-c3ccccc3F)c2)C2CCOCC2)n1 [Compound 88]
10.5 | < 100 | COC(=O)c1cccc(-c2cc(CN(C(=O)c3ncn(C)n3)C3CCOCC3)ccc2F)c1 [Compound 77]
 | ≥ 1000 | Cn1cnc(C(=O)N(Cc2ccc(OC(F)(F)F)cc2)C2CCOCC2)n1 [Compound 52]
